Measurements: patent publication US20230295197A1, “STAT5 and STAT6 Degraders and Uses Thereof” (REGENTS OF THE UNIVERSITY OF MICHICAN, priority 2022, published 2023)
Where two headings read alike, the source gives them in different places.

Target: T1, STAT6 (Homo sapiens, UniProt P42226)
T1 construct: endogenous in cells; host or cells: MOLM-16, KU-812, SKNO1, MB231, L1236
T1 sequence (P42226 1-847): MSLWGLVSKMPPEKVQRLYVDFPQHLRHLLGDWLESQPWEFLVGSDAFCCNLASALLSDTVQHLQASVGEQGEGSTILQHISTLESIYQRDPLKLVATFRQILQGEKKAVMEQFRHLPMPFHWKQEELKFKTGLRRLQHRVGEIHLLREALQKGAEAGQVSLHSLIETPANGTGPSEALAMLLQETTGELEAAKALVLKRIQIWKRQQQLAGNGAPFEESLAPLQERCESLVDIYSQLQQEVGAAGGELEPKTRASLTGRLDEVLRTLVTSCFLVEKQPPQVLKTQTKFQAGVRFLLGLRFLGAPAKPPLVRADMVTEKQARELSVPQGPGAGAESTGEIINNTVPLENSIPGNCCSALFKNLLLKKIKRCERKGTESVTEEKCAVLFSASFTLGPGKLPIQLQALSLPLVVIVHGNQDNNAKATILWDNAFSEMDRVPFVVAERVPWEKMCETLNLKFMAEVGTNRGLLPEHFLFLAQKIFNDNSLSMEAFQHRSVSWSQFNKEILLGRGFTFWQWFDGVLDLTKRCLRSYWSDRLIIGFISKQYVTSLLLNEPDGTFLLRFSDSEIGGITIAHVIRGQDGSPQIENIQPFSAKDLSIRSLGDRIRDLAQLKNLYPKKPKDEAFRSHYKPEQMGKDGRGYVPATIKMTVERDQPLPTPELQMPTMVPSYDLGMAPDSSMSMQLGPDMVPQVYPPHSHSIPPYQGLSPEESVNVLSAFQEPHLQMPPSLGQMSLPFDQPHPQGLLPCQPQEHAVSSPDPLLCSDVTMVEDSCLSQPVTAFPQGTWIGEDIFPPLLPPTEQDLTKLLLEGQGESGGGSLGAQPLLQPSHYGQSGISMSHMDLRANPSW
Test: Immunoblotting (Western blot) analysis of STAT6 degradation efficiency of degraders in treated cells
Format: cell-based
Procedure: Evaluation of the degradation efficiency of degraders may be accomplished by immunoblotting analysis. The representative general protocol is the following:
Cells are maintained in the appropriate culture medium with 10% FBS at 37° C. and an atmosphere of 5% CO2. Cell lines are used within three months of thawing fresh vials. Cells are lysed 1× Cell Lysis Buffer (Cell Signaling Technology, #9803), resolved by SDS-PAGE NuPAGE gel (Thermo Fisher Scientific), and transferred to a PVDF membrane (Millipore). Membranes are blocked using Odyssey TBS Blocker Buffer (LI-COR). IRDye 680RD and 800CW Dye-labeled secondary antibodies (LI-COR) are used. The washed membranes are scanned using Odyssey CLx imager (LI-COR). The intensity of Western blot signaling is quantitated using the Odyssey software. Primary antibodies used are: STAT5 Rabbit mAb (Cell Signaling Technology, #94205), STAT6 Rabbit mAb (Cell Signaling Technology, #5397) and GAPDH mouse monoclonal antibody (Santa Cruz Biotechnology, sc-47724).
To evaluate the degradation efficiency of degraders, immunoblotting analysis was performed. The general protocol is the following.
About 1 million cells for each data point were treated with compounds at indicated concentrations and durations. Untreated and treated cells in cell culture medium were transferred into tubes, followed by centrifugation at 3,000 rpm and 4° C. for 6 min Supernatants were removed from tubes and radioimmunoprecipitation assay (RIPA) lysis buffer supplemented with 1% protease inhibitor cocktail (Fisher Scientific cat. PI87786) and phosphatase inhibitor (Roche cat. 04906837001) were added to tubes containing the remaining cell pellets. The tubes were then left on ice for 30 min and placed in a −80° C. freezer. Subsequently they were thawed in 37° C. water, then centrifuged at 14,000 rpm for 15 min and the cell lysates transferred to new tubes. The concentration of total proteins in each tube was calculated using the Pierce BCA protein Assay kit (cat. 23225). Based on the calculated protein concentration, cell lysates containing approximately the same amount of proteins were transferred to new tubes, then distilled water and 4× Protein Sample Loading Buffer for Western Blots (LI-COR cat. 928-40004) supplemented with 20% of mercaptoethanol (Sigma Aldrich cat. M6250) were added on ice. The cell lysates were then reduced and denatured at 95° C. for 5 min. From the tubes containing cell lysates an equal amount of protein samples (20-40 μg) was loaded into precast 8%, 10%, 4%-12%, or 4%-20% Tris-glycine gels (Novex) filled with Tris-glycine SDS running buffer. After the proteins were resolved, they were transferred onto Immobile-FL PVDF Membrane (Millipore Sigma cat. IPFL00010), using Mini Trans-Blot Electrophoretic Transfer Cell (Bio-Rad 1703930). The membranes were blocked with Intercept Blocking Buffer (LI-COR cat. 927-70001) in LI-COR Western Blot boxes for 1 h at rt. The membranes were washed with 1× Tris-buffered saline-Tween-20 (TBST, 1× solution was made from 20×TBST solution, ThermoFisher Scientific cat. 28360) for 5 min 4 times. The membranes were incubated overnight at 4° C. in Intercept Blocking Buffer supplemented with primary antibodies (normally antibody:buffer 1:1000) and Tween-20. The membranes were washed with TBST for 5 min 4 times and were incubated with Intercept Blocking Buffer supplemented with IRDye 800CE Secondary Antibodies, IRDye 680RD Secondary Antibodies (LI-COR biosciences), Tween-20, and 10% SDS solution, for 1 h at rt. The membranes were then washed with TBST for 5 min 4 times and rinsed with deionized water before drying and scanning with Odyssey Dlx Amazing System (LI-COR). The immunoblots were finally quantified by the software.

[1] = MOLM-16 cells, class symbols, read-out: DC50 S6 MOLM-16
[2] = L1236 cells, read-out: DC50 S6 L1236

SMILES	DC50 [1] [µM]	DC50 [2] [µM]	DC50 (MOLM-16 cells, numeric bound, read-out: DC50 S6 MOLM-16) [µM]
CC(C)(C)[C@H](NC(=O)c1cc2cc(C(F)(F)P(=O)(O)O)ccc2s1)C(=O)N1Cc2cc(OCC(=O)NCCCCCC#Cc3ccc4c(c3)C(=O)N(C3CCC(=O)NC3=O)C4=O)ccc2C[C@H]1C(=O)N1CCC[C@H](c2ccccc2)C1 (stereo partly drawn) [Compound 558, ((2-(((2S)-1-((3S)-7-(2-((7-(2-(2,6-dioxopiperidin-3-yl)-1,3-dioxoisoindolin-5-yl)hept-6-yn-1-yl)amino)-2-oxoethoxy)-3-((R)-3-phenylpiperidine-1-carbonyl)-3,4-dihydroisoquinolin-2(1H)-yl)-3,3-dimethyl-1-oxobutan-2-yl)carbamoyl)benzo[b]thiophen-5-yl)difluoromethyl)phosphonic acid]	> 10		
Cc1ncsc1-c1ccc([C@H](C)NC(=O)[C@@H]2C[C@@H](O)CN2C(=O)[C@@H](NC(=O)CCCCCCCCCNC(=O)CC(=O)N2CCN(C(=O)[C@@H](NC(=O)c3cc4cc(C(F)(F)P(=O)(O)O)ccc4s3)C(C)(C)C)[C@H](C(=O)N3CCC[C@H](c4ccccc4)C3)C2)C(C)(C)C)cc1 [Compound 460, (difluoro(2-(((S)-1-((S)-4-(3-((10-(((S)-1-((2S,4R)-4-hydroxy-2-(((S)-1-(4-(4-methylthiazol-5-yl)phenyl)ethyl)carbamoyl)pyrrolidin-1-yl)-3,3-dimethyl-1-oxobutan-2-yl)amino)-10-oxodecyl)amino)-3-oxopropanoyl)-2-((R)-3-phenylpiperidine-1-carbonyl)piperazin-1-yl)-3,3-dimethyl-1-oxobutan-2-yl)carbamoyl)benzo[b]thiophen-5-yl)methyl)phosphonic acid]	> 10	> 10	
CC(C)(C)[C@H](NC(=O)c1cc2cc(C(F)(F)P(=O)(O)O)ccc2s1)C(=O)N1C[C@@H](OCCCCCCCCC#Cc2cccc3c2CN(C2CCC(=O)NC2=O)C3=O)C[C@H]1C(=O)N1CCO[C@H](c2ccccc2)C1 (stereo partly drawn) [Compound 586, ((2-(((2S)-1-((2S,4S)-4-((10-(2-(2,6-dioxopiperidin-3-yl)-1-oxoisoindolin-4-yl)dec-9-yn-1-yl)oxy)-2-((R)-2-phenylmorpholine-4-carbonyl)pyrrolidin-1-yl)-3,3-dimethyl-1-oxobutan-2-yl)carbamoyl)benzo[b]thiophen-5-yl)difluoromethyl)phosphonic acid]	< 0.1	1 to 10	
CC(C)(C)[C@H](NC(=O)c1cc2cc(C(F)(F)P(=O)(O)O)ccc2s1)C(=O)N1C[C@H](OCCCCCC#Cc2cccc3c2CN(C2CCC(=O)NC2=O)C3=O)C[C@H]1C(=O)N1CCC[C@H](c2ccccc2)C1 (stereo partly drawn) [Compound 602, ((2-(((2S)-1-((2S,4R)-4-((7-(2-(2,6-dioxopiperidin-3-yl)-1-oxoisoindolin-4-yl)hept-6-yn-1-yl)oxy)-2-((R)-3-phenylpiperidine-1-carbonyl)pyrrolidin-1-yl)-3,3-dimethyl-1-oxobutan-2-yl)carbamoyl)benzo[b]thiophen-5-yl)difluoromethyl)phosphonic acid]			> 0.3
CC(C)(C)[C@H](NC(=O)c1cc2cc(C(F)(F)P(=O)(O)O)ccc2s1)C(=O)N1CCN(C(=O)CC(=O)NCC#Cc2cccc3c2C(=O)N(C2CCC(=O)NC2=O)C3=O)C[C@H]1C(=O)N1CCO[C@H](c2ccccc2)C1 (stereo partly drawn) [Compound 507, ((2-(((2S)-1-((2S)-4-(3-((3-(2-(2,6-dioxopiperidin-3-yl)-1,3-dioxoisoindolin-4-yl)prop-2-yn-1-yl)amino)-3-oxopropanoyl)-2-((R)-2-phenylmorpholine-4-carbonyl)piperazin-1-yl)-3,3-dimethyl-1-oxobutan-2-yl)carbamoyl)benzo[b]thiophen-5-yl)difluoromethyl)phosphonic acid]	> 10		

Continued, values first:

DC50 [1] [µM]	DC50 [2] [µM]	DC50 (MOLM-16 cells, numeric bound, read-out: DC50 S6 MOLM-16) [µM]	SMILES
> 10			CC(C)(C)[C@H](NC(=O)c1cc2cc(C(F)(F)P(=O)(O)O)ccc2s1)C(=O)N1C[C@@H](OCC(=O)NCC#Cc2ccc3c(c2)C(=O)N(C2CCC(=O)NC2=O)C3=O)C[C@H]1C(=O)N1CCC[C@H](c2ccccc2)C1 (stereo partly drawn) [Compound 494, ((2-(((2S)-1-((2S,4S)-4-(2-((3-(2-(2,6-dioxopiperidin-3-yl)-1,3-dioxoisoindolin-5-yl)prop-2-yn-1-yl)amino)-2-oxoethoxy)-2-((R)-3-phenylpiperidine-1-carbonyl)pyrrolidin-1-yl)-3,3-dimethyl-1-oxobutan-2-yl)carbamoyl)benzo[b]thiophen-5-yl)difluoromethyl)phosphonic acid]
> 10			CC(C)(C)[C@H](NC(=O)c1cc2cc(C(F)(F)P(=O)(O)O)ccc2s1)C(=O)N1Cc2cc(OCC(=O)NCCCCCCCCCC#Cc3cccc4c3C(=O)N(C3CCC(=O)NC3=O)C4=O)ccc2C[C@H]1C(=O)N1CCO[C@H](c2ccccc2)C1 (stereo partly drawn) [Compound 547, ((2-(((2S)-1-((3S)-7-(2-((11-(2-(2,6-dioxopiperidin-3-yl)-1,3-dioxoisoindolin-4-yl)undec-10-yn-1-yl)amino)-2-oxoethoxy)-3-((R)-2-phenylmorpholine-4-carbonyl)-3,4-dihydroisoquinolin-2(1H)-yl)-3,3-dimethyl-1-oxobutan-2-yl)carbamoyl)benzo[b]thiophen-5-yl)difluoromethyl)phosphonic acid]
1 to 10			CC(C)(C)[C@H](NC(=O)c1cc2cc(C(F)(F)P(=O)(O)O)ccc2s1)C(=O)N1C[C@H](OCCCCCC(=O)N2Cc3cc4c(cc3C2)C(=O)N(C2CCC(=O)NC2=O)C4)C[C@H]1C(=O)N1CCO[C@H](c2ccccc2)C1 (stereo partly drawn) [Compound 592, ((2-(((2S)-1-((2S,4R)-4-((6-(6-(2,6-dioxopiperidin-3-yl)-5-oxo-3,5,6,7-tetrahydropyrrolo[3,4-f]isoindol-2(1H)-yl)-6-oxohexyl)oxy)-2-((R)-2-phenylmorpholine-4-carbonyl)pyrrolidin-1-yl)-3,3-dimethyl-1-oxobutan-2-yl)carbamoyl)benzo[b]thiophen-5-yl)difluoromethyl)phosphonic acid]
> 10	> 10		O=C1CCC(N2Cc3c(C#CCCCCCC(=O)N4CC[C@H]5CC[C@@H](C(=O)N6CCOC(c7ccc(F)c(Cl)c7)C6)N5C(=O)[C@@H](NC(=O)c5cc6cc(C(F)(F)P(=O)(O)O)ccc6s5)C4)cccc3C2=O)C(=O)N1 (stereo partly drawn) [Compound 564, ((2-(((5S,8S,10aR)-8-(2-(3-chloro-4-fluorophenyl)morpholine-4-carbonyl)-3-(8-(2-(2,6-dioxopiperidin-3-yl)-1-oxoisoindolin-4-yl)oct-7-ynoyl)-6-oxodecahydropyrrolo[1,2-a][1,5]diazocin-5-yl)carbamoyl)benzo[b]thiophen-5-yl)difluoromethyl)phosphonic acid]
